Where two headings read alike, the source gives them in different places.
System: β-adrenergic receptors
Conditions: Desipramine 5 mg/kg, i.p.; for [^3 H]-DHA Specifically Bound: mean ± SEM, six animals per group
Method: The number of β-adrenergic receptors in rat cerebral cortical membranes was measured after a 4 day and 14 day course of one of the following treatments:
a) saline control (intraperitoneal injection--i.p.)
c) fluoxetine (10 mg/kg/day, i.p.) or (10 mg/kg bid, i.p.)
Male Sprague-Dawley rats (175-200 g) were assigned randomly to one of the four treatment groups above and were treated as indicated for either 4 or 14 days. The animals were sacrificed 24 hours after their last treatment and cerebral cortical membranes were isolated. These membranes were assayed for β-adrenergic receptor number by the method of Bylund and Snyder [Mol. Pharmacol. 12, 568 (1976)] by measuring the amount of [3H]dihydro-alprenolol ([^3 H]-DHA) bound.

CNCCC(Oc1ccc(C(F)(F)F)cc1)c1ccccc1 (stereo not shown) [Fluoxetine, fluoxetine]
[^3 H]-DHA Specifically Bound, % Control (A) 14 days, Fluoxetine 10 mg/kg): 91 % Control | [^3 H]-DHA Specifically Bound (A) 14 days, Fluoxetine 10 mg/kg, saline 41.8 ± 1.4, * p < 0.05 vs saline, + P < 0.05 vs Desipramine): 37.9 ± 1.8 fmol/mg protein | [^3 H]-DHA Specifically Bound, % Control (B) 4 days, Fluoxetine 10 mg/kg bid): 95 % Control | [^3 H]-DHA Specifically Bound (B) 4 days, Fluoxetine 10 mg/kg bid, saline 54.6 ± 3.1, * p < 0.05 vs saline): 51.8 ± 1.7 fmol/mg protein

From patent US5149714A, “Antidepressants” (Merrell Dow Pharmaceuticals Inc., priority 1990, dated 1992)
